Measurements taken from patent publication US4684664A, “Derivatives of β-(4-isocyano-1,2,3,4-diepoxycyclopentyl) acrylic acid” (Kureha Kagaku Kogyo Kabushiki Kaisha, priority 1984, dated 1987).
In brackets after ≈: the same amount, converted by molar mass.

Columns and labels:
Assay type in all cases: cell-based
Proteus vulgaris OX-19 = assay: Antibacterial activity, agar-dilution MIC, organism No. 20; settings: Proteus vulgaris, OX19; Organism No. 20, bouillon-agar; read-out: Minimum Inhibitory Concentration
How it was run: (§1)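 MICs were determined by agar dilution on bouillon-agar medium. The value is the minimum concentration of specimen inhibiting growth, expressed as μg/ml of culture medium.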

[1] = test system: Salmonella enteritidis G 14; assay: Antibacterial activity, agar-dilution MIC, organism No. 12; settings: Salmonella enterica, ENTERITIDIS; Organism No. 12, bouillon-agar; read-out: Minimum Inhibitory Concentration
How it was run: as §1

Enterobacter cloacae 963 = assay: Antibacterial activity, agar-dilution MIC, organism No. 24; settings: Enterobacter cloacae, 963; Organism No. 24, bouillon-agar; read-out: Minimum Inhibitory Concentration
How it was run: as §1

[2] = test system: Streptococcus faecium IFO 3826; assay: Antibacterial activity, agar-dilution MIC, organism No. 27; settings: Enterococcus faecium, IFO3826; Organism No. 27, bouillon-agar; read-out: Minimum Inhibitory Concentration
How it was run: as §1

Salmonella typhi 901 = assay: Antibacterial activity, agar-dilution MIC, organism No. 9; settings: Salmonella enterica, TYPHI, read-out: Minimum Inhibitory Concentration
How it was run: as §1

[3] = test system: Proteus rettgeri IFO 3850; assay: Antibacterial activity, agar-dilution MIC, organism No. 22; settings: Providencia rettgeri, IFO3850; Organism No. 22, bouillon-agar; read-out: Minimum Inhibitory Concentration
How it was run: as §1

[4] = test system: Streptococcus pyogenes Cook; assay: Antibacterial activity, agar-dilution MIC, organism No. 4; settings: Streptococcus pyogenes; Organism No. 4, bouillon-agar; read-out: Minimum Inhibitory Concentration
How it was run: as §1

[5] = test system: Staphylococcus aureus Terajima; assay: Antibacterial activity, agar-dilution MIC, organism No. 2; settings: Staphylococcus aureus; Organism No. 2, bouillon-agar; read-out: Minimum Inhibitory Concentration
How it was run: as §1

[6] = test system: Aspergillus niger IFO 6342; assay: Antifungal activity, agar-dilution MIC, organism No. 30; settings: Aspergillus niger, IFO6342; Organism No. 30, bouillon-agar; read-out: Minimum Inhibitory Concentration
How it was run: as §1

[7] = test system: Micrococcus luteus ATCC 9341; assay: Antibacterial activity, agar-dilution MIC, organism No. 25; settings: Micrococcus luteus, ATCC9341; Organism No. 25, bouillon-agar; read-out: Minimum Inhibitory Concentration
How it was run: as §1

[8] = test system: Salmonella paratyphi-A 1015; assay: Antibacterial activity, agar-dilution MIC, organism No. 10; settings: Salmonella enterica, PARATYPHI, read-out: Minimum Inhibitory Concentration
How it was run: as §1

Proteus vulgaris HX-19 = assay: Antibacterial activity, agar-dilution MIC, organism No. 21; settings: Proteus vulgaris, HX19; Organism No. 21, bouillon-agar; read-out: Minimum Inhibitory Concentration
How it was run: as §1

[9] = test system: Proteus mirabilis IFO 3849; assay: Antibacterial activity, agar-dilution MIC, organism No. 19; settings: Proteus mirabilis, IFO3849; Organism No. 19, bouillon-agar; read-out: Minimum Inhibitory Concentration
How it was run: as §1

[10] = test system: Salmonella typhimurium IID 971; assay: Antibacterial activity, agar-dilution MIC, organism No. 8; settings: Salmonella enterica; Organism No. 8, bouillon-agar; read-out: Minimum Inhibitory Concentration
How it was run: as §1

[11] = test system: Bacillus subtilis ATCC 6633; assay: Antibacterial activity, agar-dilution MIC, organism No. 14; settings: Bacillus subtilis, ATCC6633; Organism No. 14, bouillon-agar; read-out: Minimum Inhibitory Concentration
How it was run: as §1

[12] = test system: Enterobacter aerogenes ATCC 13048; assay: Antibacterial activity, agar-dilution MIC, organism No. 23; settings: Klebsiella aerogenes, ATCC13048; Organism No. 23, bouillon-agar; read-out: Minimum Inhibitory Concentration
How it was run: as §1

[13] = test system: Streptococcus pyogenes IFO 3340; assay: Antibacterial activity, agar-dilution MIC, organism No. 26; settings: Streptococcus pyogenes, IFO3340; Organism No. 26, bouillon-agar; read-out: Minimum Inhibitory Concentration
How it was run: as §1

[14] = test system: Proteus morganii IFO 3848; assay: Antibacterial activity, agar-dilution MIC, organism No. 18; settings: Morganella morganii, IFO3848; Organism No. 18, bouillon-agar; read-out: Minimum Inhibitory Concentration
How it was run: as §1

[15] = test system: Escherichia coli NIHJ-JC-2; assay: Antibacterial activity, agar-dilution MIC, organism No. 5; settings: Escherichia coli, NIHJJC2; Organism No. 5, bouillon-agar; read-out: Minimum Inhibitory Concentration
How it was run: as §1

[16] = test system: Serratia marcescens IAM 1184; assay: Antibacterial activity, agar-dilution MIC, organism No. 13; settings: Serratia marcescens, IAM1184; Organism No. 13, bouillon-agar; read-out: Minimum Inhibitory Concentration
How it was run: as §1

[17] = test system: Klebsiella pneumoniae PCI-602; assay: Antibacterial activity, agar-dilution MIC, organism No. 7; settings: Klebsiella pneumoniae, PCI602; Organism No. 7, bouillon-agar; read-out: Minimum Inhibitory Concentration
How it was run: as §1

[18] = test system: Escherichia coli K12 C600 IAM 1264; assay: Antibacterial activity, agar-dilution MIC, organism No. 6; settings: Escherichia coli, IAM1264; Organism No. 6, bouillon-agar; read-out: Minimum Inhibitory Concentration
How it was run: as §1

[19] = test system: Mycoplasma pneumoniae IID817; assay: Antimycoplasmal activity, MIC by phenol red colour change, organism No. 28; settings: Mycoplasma, IID817; Organism No. 28, PPLO broth + 1% glucose, 37° C.; read-out: Minimum Inhibitory Concentration (MIC)
Method: Mycoplasma pneumoniae IID817 was used as the test microorganism in a culture medium prepared by adding 1% of glucose to "PPLO broth (manufactured by Difco Co.) liquid culture medium" at 37° C. with phenol red as an indicator, thereby culturing the test microorganism.

[20] = test system: Pseudomonas aeruginosa NCTC 10490; assay: Antibacterial activity, agar-dilution MIC, organism No. 16; settings: Pseudomonas aeruginosa, NCTC10490; Organism No. 16, bouillon-agar; read-out: Minimum Inhibitory Concentration
How it was run: as §1

[21] = test system: Salmonella shottmuelleri 8006; assay: Antibacterial activity, agar-dilution MIC, organism No. 11; settings: Salmonella, 8006; Organism No. 11, bouillon-agar; read-out: Minimum Inhibitory Concentration
How it was run: as §1

[22] = test system: Staphylococcus aureus FDA 209PJc-1; assay: Antibacterial activity, agar-dilution MIC, organism No. 1; settings: Staphylococcus aureus, FDA209PJC1; Organism No. 1, bouillon-agar; read-out: Minimum Inhibitory Concentration
How it was run: as §1

[23] = test system: Staphylococcus aureus MS 353; assay: Antibacterial activity, agar-dilution MIC, organism No. 3; settings: Staphylococcus aureus, MS353; Organism No. 3, bouillon-agar; read-out: Minimum Inhibitory Concentration
How it was run: as §1

[24] = test system: Pseudomonas aeruginosa IFO 3445; assay: Antibacterial activity, agar-dilution MIC, organism No. 15; settings: Pseudomonas aeruginosa, IFO3445; Organism No. 15, bouillon-agar; read-out: Minimum Inhibitory Concentration
How it was run: as §1

[25] = test system: Candida albicans IAM 4905; assay: Antifungal activity, agar-dilution MIC, organism No. 29; settings: Candida albicans, IAM4905; Organism No. 29, bouillon-agar; read-out: Minimum Inhibitory Concentration
How it was run: as §1

[26] = test system: Pseudomonas aeruginosa PAO 1; assay: Antibacterial activity, agar-dilution MIC, organism No. 17; settings: Pseudomonas aeruginosa, PAO1; Organism No. 17, bouillon-agar; read-out: Minimum Inhibitory Concentration
How it was run: as §1

Structure (SMILES)	MIC (Proteus vulgaris OX-19) [µg/mL]	MIC [1] [µg/mL]	MIC (Enterobacter cloacae 963) [µg/mL]	MIC [2] [µg/mL]	MIC (Salmonella typhi 901) [µg/mL]	MIC [3] [µg/mL]	MIC [4] [µg/mL]	MIC [5] [µg/mL]	MIC [6] [µg/mL]	MIC [7] [µg/mL]	MIC [8] [µg/mL]	MIC (Proteus vulgaris HX-19) [µg/mL]	MIC [9] [µg/mL]	MIC [10] [µg/mL]	MIC [11] [µg/mL]	MIC [12] [µg/mL]	MIC [13] [µg/mL]	MIC [14] [µg/mL]	MIC [15] [µg/mL]	MIC [16] [µg/mL]	other results
[C-]#[N+]C12CC3(/C=C/C(=O)Nc4cccc(N)c4)OC3C1O2 (stereo not drawn) [compound 60]	0.39 (≈ 1.38 µM)	6.25 (≈ 22.1 µM)	200 (≈ 706 µM)	50 (≈ 176 µM)	3.13 (≈ 11 µM)	> 200	25 (≈ 88.2 µM)	12.5 (≈ 44.1 µM)	100 (≈ 353 µM)	0.39 (≈ 1.38 µM)	3.13 (≈ 11 µM)	0.39 (≈ 1.38 µM)	> 200	12.5 (≈ 44.1 µM)	12.5 (≈ 44.1 µM)	> 200	3.13 (≈ 11 µM)	1.56 (≈ 5.51 µM)	25 (≈ 88.2 µM)	200 (≈ 706 µM)	MIC [17]: 1.56 µg/mL (≈ 5.51 µM); MIC [18]: 25 µg/mL (≈ 88.2 µM); MIC [19]: < 0.2 µg/mL; MIC [20]: > 200 µg/mL; MIC [21]: 3.13 µg/mL (≈ 11 µM); MIC [22]: 3.13 µg/mL (≈ 11 µM); MIC [23]: 3.13 µg/mL (≈ 11 µM); MIC [24]: > 200 µg/mL; MIC [25]: 25 µg/mL (≈ 88.2 µM); MIC [26]: > 200 µg/mL
[C-]#[N+]C12CC3(/C=C/C(=O)Nc4ccc5c(c4)OCO5)OC3C1O2 (stereo not drawn) [compound 64]	0.2 (≈ 0.64 µM)	3.13 (≈ 10 µM)	> 200	12.5 (≈ 40 µM)	3.13 (≈ 10 µM)	3.13 (≈ 10 µM)	12.5 (≈ 40 µM)	0.78 (≈ 2.5 µM)	6.25 (≈ 20 µM)	0.05 (≈ 0.16 µM)	0.39 (≈ 1.25 µM)	0.05 (≈ 0.16 µM)	> 200	6.25 (≈ 20 µM)	6.25 (≈ 20 µM)	> 200	1.56 (≈ 5 µM)	6.25 (≈ 20 µM)	25 (≈ 80.1 µM)	50 (≈ 160 µM)	MIC [17]: 0.2 µg/mL (≈ 0.64 µM); MIC [18]: 12.5 µg/mL (≈ 40 µM); MIC [19]: < 0.2 µg/mL; MIC [20]: > 200 µg/mL; MIC [21]: 0.39 µg/mL (≈ 1.25 µM); MIC [22]: 0.2 µg/mL (≈ 0.64 µM); MIC [23]: 0.2 µg/mL (≈ 0.64 µM); MIC [24]: > 200 µg/mL; MIC [25]: 0.39 µg/mL (≈ 1.25 µM); MIC [26]: > 200 µg/mL
[C-]#[N+]C12CC3(/C=C/C(=O)Nc4ccc(I)cc4)OC3C1O2 (stereo not drawn) [compound 45]	0.78 (≈ 1.98 µM)	> 200	> 200	> 200	> 200	> 200	> 200	> 200	3.13 (≈ 7.94 µM)	< 0.05	> 200	0.78 (≈ 1.98 µM)	> 200	> 200	> 200	> 200	> 200	100 (≈ 254 µM)	> 200	> 200	MIC [17]: 6.25 µg/mL (≈ 15.9 µM); MIC [18]: > 200 µg/mL; MIC [19]: < 0.2 µg/mL; MIC [20]: > 200 µg/mL; MIC [21]: 50 µg/mL (≈ 127 µM); MIC [22]: 12.5 µg/mL (≈ 31.7 µM); MIC [23]: 12.5 µg/mL (≈ 31.7 µM); MIC [24]: > 200 µg/mL; MIC [25]: 3.13 µg/mL (≈ 7.94 µM); MIC [26]: > 200 µg/mL
[C-]#[N+]C12CC3(/C=C/C(=O)Nc4ccc(C(=O)OC)cc4)OC3C1O2 (stereo not drawn) [compound 49]	< 0.05	0.39 (≈ 1.2 µM)	25 (≈ 76.6 µM)	25 (≈ 76.6 µM)	0.1 (≈ 0.306 µM)	< 0.05	12.5 (≈ 38.3 µM)	< 0.05	3.13 (≈ 9.59 µM)	< 0.05	< 0.05	< 0.05	> 200	0.39 (≈ 1.2 µM)	0.78 (≈ 2.39 µM)	> 200	< 0.05	12.5 (≈ 38.3 µM)	50 (≈ 153 µM)	12.5 (≈ 38.3 µM)	MIC [17]: < 0.05 µg/mL; MIC [18]: 50 µg/mL (≈ 153 µM); MIC [19]: < 0.2 µg/mL; MIC [20]: > 200 µg/mL; MIC [21]: < 0.05 µg/mL; MIC [22]: < 0.05 µg/mL; MIC [23]: < 0.05 µg/mL; MIC [24]: > 200 µg/mL; MIC [25]: 1.56 µg/mL (≈ 4.78 µM); MIC [26]: > 200 µg/mL
